ChEMBL document CHEMBL1255464, “Ethambutol optimal clinical dose and susceptibility breakpoint identification by use of a novel pharmacokinetic-pharmacodynamic model of disseminated intracellular Mycobacterium avium” (Antimicrob Agents Chemother, 2010)
In brackets after ≈: the same amount, converted by molar mass.

Columns and labels:
Mycobacterium avium [1] = test: Antimycobacterial activity against Mycobacterium avium ATCC 700898 infected in human THP1 cells assessed as intracellular bacterial killing after 7 days; type: functional, organism-based; settings: ATCC 700898, THP-1, 168 h
Mycobacterium avium [2] = test: Antimycobacterial activity against Mycobacterium avium ATCC 700898 infected in human THP1 cells assessed as intracellular bacterial killing; type: functional; settings: ATCC 700898, THP-1
Mycobacterium avium [3] = test: Antimycobacterial activity against Mycobacterium avium ATCC 700898 infected in human THP1 cells assessed as extracellular bacterial killing; type: functional; settings: ATCC 700898, THP-1
Mycobacterium avium [4] = test: Antimycobacterial activity against Mycobacterium avium ATCC 700898 infected in human THP1 cells; type: functional, THP-1
Mycobacterium avium [5] = test: Antimycobacterial activity against Mycobacterium avium ATCC 700898 infected in human THP1 cells assessed as extracellular bacterial killing after 7 days; type: functional, organism-based; settings: ATCC 700898, THP-1, 168 h
THP-1 = test: Cytotoxicity against human THP1 cells; type: cell-based

**Q.** `CC[C@@H](CO)NCCN[C@@H](CC)CO` [ETHAMBUTOL] was tested. Which EC50 (Mycobacterium avium [1]) did it give?
**A.** The EC50 was 7.93 µg/mL (≈ 38.8 µM).

**Q.** And the Emax (Mycobacterium avium [2])?
**A.** Its Emax is 0.67 log10 CFU/ml.

**Q.** And the Emax (Mycobacterium avium [3])?
**A.** Its Emax is 5.54 log10 CFU/ml.

**Q.** And the MIC (Mycobacterium avium [4])?
**A.** Its MIC is 8 µg/mL (≈ 39.2 µM).

**Q.** What about the EC50 (Mycobacterium avium [5]) of the same molecule?
**A.** Its EC50 is 5.38 µg/mL (≈ 26.3 µM).

**Q.** What about the Activity (THP-1) of the same molecule?
**A.** Its Activity is “Non-toxic”.
